This experiment concerns the target T1, cGMP-PDE prepared from the swine aeorta (Sus scrofa, UniProt A0A287B475).
T1 construct: The swine aeorta was sliced; from tissue; host or cells: swine aorta, 100000×g supernatant, DEAE-Toyopearl 650S fraction
In words: Enzyme inhibiting action with the use of cGMP-PDE prepared from the swine aorta. In kind it is biochemical. The settings on record: CaM-independent cGMP-PDE, 1 mM EGTA, 1 μM cGMP substrate, DMSO 4% or below. The procedure: Enzyme inhibiting action with the use of cGMP-PDE prepared from the swine aeorta
The enzymatic activity of the cGMP-PDE prepared from the swine aeorta was determined according to the method of Thompson et al. ^(1). The enzymatic activity thereof was determined in the presence of 1 mM EGTA by the use of 1 μM cGMP as a substrate. The compound of the present invention was dissolved in DMSO, added to the reaction liquid and examined for the inhibitory activity. The final concentration of DMSO in the reaction liquid was adjusted to 4% or below. (1) Thompson, W. J. and Strada, S. J., Cyclic Nucleotide Phosphodiesterase (PDE), in Methods of Enzymatic Analysis, vol 4, p.127-234, 1984.
The swine aeorta was sliced, followed by the addition of 10 times by volume as much Buffer A (20 mM Tris/HCl, 2 mM Mg acetate, 1 mM Dithiothreitol, 5 mM EDTA, 1400 TIU/liter aprotinin, 10 mg/liter leupeptin, 1 mM benzamidine, 0.2 mM PMSF, pH 7.5). The obtained mixture was homogenized and the homogenate was centrifuged at 100000×g for one hour. The obtained supernatant was supplied a DEAE-Toyopearl 650S (Tosoh, Tokyo, Japan) column. After the column was washed with Buffer B (50 mM Tris/HCl, 0.1 mM EGTA, 2 mM Mg acetate, 1 mM Dithiothreitol, 0.2 mM PMSF, pH 7.5), gradient elution with 0.05 to 0.4M NaCl was conducted. Thus, CaM-independent cGMP-PDE fractions were obtained.
`COc1ccc2nc(OCc3ccccc3)nc(NCc3ccc4c(c3)OCO4)c2c1` [Example 91, 2-Benzyloxy-4-(4-methylenedioxybenzyl)amino-6-methoxyquinazoline] came in with an IC50 of 36 nM.

Compound `Clc1ccc2nc(Cl)nc(NCc3ccc4c(c3)OCO4)c2c1` [Example 92, 2,6-Dichloro-4-(3,4-methylenedioxybenzyl)aminoquinazoline] displayed an IC50 of 94 nM.

As to `N#Cc1ccc2nc(Cl)nc(NCc3ccc4c(c3)OCO4)c2c1` [Example 93, 2-Chloro-4-(3,4-methylenedioxybenzyl)amino-6-cyanoquinazoline], the IC50 turned out to be 32 nM.

For `COc1cc2c(NCc3ccc4c(c3)OCO4)nc(Cl)nc2c(OC)c1OC` [Example 95, 2-Chloro-4-(3,4-methylenedioxybenzyl)amino-6,7,8-trimethoxyquinazoline], the IC50 turned out to be 200 nM.

In the case of `COc1cc2nc(Cl)nc(NCc3ccc4c(c3)OCO4)c2cc1OC` [Example 97], the IC50 stood at 790 nM.

For `COc1ccc2nc(Cl)nc(NCc3ccc4c(c3)OCO4)c2c1` [Example 98, 2-Chloro-4-(3,4-methylenedioxybenzyl)amino-6-methoxyquinazoline], the IC50 was 62 nM.

As to `N#Cc1ccc2nc(Cl)nc(NCc3ccc4nc[nH]c4c3)c2c1` [Example 104, 2-Chloro-4-(benzimidazol-5-yl)methylamino-6-cyanoquinazoline], the IC50 came to 10 nM.

As to `COc1cc2c(N(CCO)Cc3ccc4c(c3)OCO4)nc(Cl)nc2c(OC)c1OC` [Example 105, 2-Chloro-4-[N-(2-hydroxyethyl)-(3,4-methylenedioxybenzyl)amino]-6,7,8-trimethoxyquinazoline], half-maximal inhibition (IC50) was put at 180 nM.

Consider `CCOC(=O)c1nc(NCc2ccc3c(c2)OCO3)c2cc(Cl)ccc2n1` [Example 107, 2-Ethoxycarbonyl-4-(3,4-methylenedioxybenzyl)amino-6-chloroquinazoline], for which the IC50 was 4 nM.

`CCOC(=O)/C(C)=C/c1nc(NCc2ccc3c(c2)OCO3)c2cc(Cl)ccc2n1` [Example 112, (E)-2-(2-Ethoxycarbonyl-1-propenyl)-4-(3,4-methylenedioxybenzyl)amino-6-chloroquinazoline]: the half-inhibitory concentration (IC50) came out at 2 nM.

`CCOC(=O)/C=C/c1nc(NCc2ccc3c(c2)OCO3)c2cc(Cl)ccc2n1` [Example 114, (E)-2-(2-Ethoxycarbonylvinyl)-4-(3,4-methylenedioxybenzyl)amino-6-chloroquinazoline] yielded an IC50 of 3 nM.

`CCOC(=O)/C=C/c1nc(NCc2ccc(OC)c(Cl)c2)c2cc(Cl)ccc2n1` [Example 115, (E)-2-(2-Ethoxycarbonylvinyl)-4-(3-chloro-4-methoxybenzyl)amino-6-chloroquinazoline] returned an IC50 of 2 nM.

Consider `C/C(=C\c1nc(NCc2ccc3c(c2)OCO3)c2cc(Cl)ccc2n1)C(=O)O` [Example 120, (E)-2-(2-Carboxy-1-propenyl)-4-(3,4-methylenedioxybenzyl)amino-6-chloroquinazoline], for which the IC50 was 1 nM.

In the case of `O=C(O)c1nc(NCc2ccc3c(c2)OCO3)c2cc(Cl)ccc2n1` [Example 121, 2-Carboxy-4-(3,4-methylenedioxybenzyl)amino-6-chloroquinazoline], the IC50 stood at 650 nM.

Turning to `O=C(O)/C=C/c1nc(NCc2ccc3c(c2)OCO3)c2cc(Cl)ccc2n1` [Example 122, (E)-2-(2-Carboxyvinyl)-4-(3,4-methylenedioxybenzyl)amino-6-chloroquinazoline], the IC50 came to 5 nM.

As for `C/C(=C/c1nc(NCc2ccc3c(c2)OCO3)c2cc(Cl)ccc2n1)C(=O)O` [Example 123, (Z)-2-(2-carboxy-1-propenyl)-4-(3,4-methylenedioxybenzyl)amino-6-chloroquinazoline], the IC50 is 31 nM.

`COc1ccc(CNc2nc(/C=C/C(=O)O)nc3ccc(Cl)cc23)cc1Cl` [Example 124, (E)-2-(2-carboxyvinyl)-4-(3-chloro-4-methoxybenzyl)amino-6-chloroquinazoline] registered an IC50 of 8 nM.

For the compound `COc1ccc(CNc2nc(/C=C(\C)C(=O)O)nc3ccc(Cl)cc23)cc1Cl` [Example 125, (E)-2-(2-Carboxy-1-propenyl)-4-(3-chloro-4-methoxybenzyl)amino-6-chloroquinazoline], half-maximal inhibition (IC50) was put at 9 nM.

For the compound `COc1ccc(CNc2nc(/C=C(/C)C(=O)O)nc3ccc(Cl)cc23)cc1Cl` [Example 126, (Z)-2-(2-Carboxy-1-propenyl)-4-(3-chloro-4-methoxybenzyl)amino-6-chloroquinazoline], the IC50 was determined as 1 nM.

`COc1cc2c(NCc3ccc4c(c3)OCO4)nc(/C=C(\C)C(=O)O)nc2c(OC)c1OC` [Example 127, (E)-2-(2-Carboxy-1-propenyl)-4-(3,4-methylenedioxybenzyl)amino-6,7,8-trimethoxyquinazoline]: the IC50 stood at 110 nM.

Regarding `COc1cc2c(NCc3ccc4c(c3)OCO4)nc(/C=C(/C)C(=O)O)nc2c(OC)c1OC` [Example 128, (Z)-2-(2-Carboxy-1-propenyl)-4-(3,4-methylenedioxybenzyl)amino-6,7,8-trimethoxyquinazoline], the IC50 was determined as 300 nM.

Compound `NC(=O)c1ccc2ncnc(NCc3ccc4c(c3)OCO4)c2c1` [Example 133, 4-(3,4-Methylenedioxybenzyl)amino-6-carbamoylquinazoline] gave an IC50 of 770 nM.

`NC(=O)c1nc(NCc2ccc3c(c2)OCO3)c2cc(Cl)ccc2n1` [Example 134, 2-Carbamoyl-4-(3,4-methylenedioxybenzyl)amino-6-chloroquinazoline]: the IC50 came out at 5 nM.

The compound `OCc1ccc2ncnc(NCc3ccc4c(c3)OCO4)c2c1` [Example 136] had an IC50 of 930 nM.

Take `CS(=O)(=O)c1ccc2ncnc(NCc3ccc4c(c3)OCO4)c2c1` [Example 138, 4-(3,4-Methylenedioxybenzyl)amino-6-methysulfonylquinazoline]: inhibition was half-maximal at 810 nM (IC50).

Compound `COc1ccc2nc(CO)nc(NCc3ccc4c(c3)OCO4)c2c1` [Example 139, 2-Hydroxymethyl-4-(3,4-methylenedioxybenzyl)amino-6-methoxyquinazoline] showed an IC50 of 21 nM.

`COc1ccc2nc(O)nc(NCc3ccc4c(c3)OCO4)c2c1` [Example 140, 2-Hydroxy-4-(3,4-methylenedioxybenzyl)amino-6-methoxyquinazoline] showed an IC50 of 680 nM.

The compound `ON=Cc1nc(NCc2ccc3c(c2)OCO3)c2cc(Cl)ccc2n1` [Example 146, 2-Hydroxyiminomethyl-4-(3,4-methylenedioxybenzyl)amino-6-chloroquinazoline] displayed an IC50 of 15 nM.

As to `CCOC(=O)CON=Cc1nc(NCc2ccc3c(c2)OCO3)c2cc(Cl)ccc2n1` [Example 150, 2-Ethoxycarbonylmethoxyiminomethyl-4-(3,4-methylenedioxybenzyl)amino-6-chloroquinazoline], the IC50 was 7.2 nM.

Take `Nc1cc(CNc2ncnc3ccc(Cl)cc23)ccc1Cl` [Example 151, 4-(3-Amino-4-chlorobenzyl)amino-6-chloroquinazoline]: half-maximal inhibition (IC50) required 81 nM.

In the case of `O=CNc1cc(CNc2ncnc3ccc(Cl)cc23)ccc1Cl` [Example 152, 4-(4-Chloro-3-formamidobenzyl)amino-6-chloroquinazoline], inhibition was half-maximal at 110 nM (IC50).

Turning to `COCCOc1nc(NCc2ccc3c(c2)OCO3)c2cc(Cl)ccc2n1` [Example 164, 2-(2-Methoxyethoxy)-4-(3,4-methylenedioxybenzyl)amino-6-chloroquinazoline], the IC50 stood at 8 nM.

These data come from patent US5801180A, “Quinazoline derivatives” (priority 1991, dated 1998).
